Experimental findings from the OligoGym collection are described below.

Values joined by “and” are separate entries in the source; they are usually repeats but may differ in a detail not shown here. Equal values may be shown once. After the bases stand the sugars from the 5' end (letter, count) and the backbone: PS all phosphorothioate, else s phosphorothioate and o phosphodiester by linkage. Methylation of C is not given here. e = 2'-O-(2-methoxyethyl) (MOE); d = 2'-deoxy (DNA)

This data set deals with DGAT2. The conditions noted are these: ASO.

As to “TCTCATTCATCTGGGCCCTG (sugars e5 d10 e5, PS)”, the target mRNA inhibition (HepG2, 2.5 µM) was 65% and the target mRNA inhibition (HepG2, 10 µM) stood at 78%.
With “TCATACTTACTGTTCAGCAG (sugars e5 d10 e5, PS)”, the target mRNA inhibition reads like this: (HepG2, 2.5 µM) 74% and 65%; (HepG2, 10 µM) 93% and 89%.
The sequence “GCAGATGGACAGGTGATTCT (sugars e5 d10 e5, PS)” gave a target mRNA inhibition (HepG2, 2.5 µM) of 69% and a target mRNA inhibition (HepG2, 10 µM) of 91%.
Take “CTTGCTCACTTCTGTGGCCT (sugars e5 d10 e5, PS)”: the target mRNA inhibition (HepG2, 0.12 µM) stood at 48%.
“AGTAGTCTCGAAAGTAGCGC (sugars e5 d10 e5, PS)” returned a target mRNA inhibition (HepG2, 0.12 µM) of 39%.
For “TTAAGGGTTCATGGATCCCC (sugars e5 d10 e5, PS)”, the target mRNA inhibition (HepG2, 2.5 µM) was 63% and 75% and 79%; the target mRNA inhibition (HepG2, 10 µM) was 91% and 93%.
Take “CAAGGCTGAGTCTGTGCTGC (sugars e5 d10 e5, PS)”: where the note is “HepG2, 0.12 µM”, the target mRNA inhibition turned out to be 24%.
Take “GTATCCTTAAAGCAGGGCCC (sugars e5 d10 e5, PS)”: the target mRNA inhibition (HepG2, 2.5 µM) was 84% and 81%; the target mRNA inhibition (HepG2, 10 µM) was 85% and 89%.
“CGTTGGTCTTTTTGGCTGCC (sugars e5 d10 e5, PS)” registered a target mRNA inhibition (HepG2, 2.5 µM) of 88% and a target mRNA inhibition (HepG2, 10 µM) of 81%.
On to “AGCTCAGAGACTCAGCCGCA (sugars e2 d13 e5, PS)”, for which the target mRNA inhibition (HepG2, 0.12 µM) amounted to 86%.
In the case of “GAGCTCTCAAGTCTTCC (sugars e3 d10 e4, PS)”, the target mRNA inhibition (HepG2, 2.5 µM) was 55% and 64%; the target mRNA inhibition (HepG2, 10 µM) was 86% and 87%.
With “CATACTAGACTATGCAGCCT (sugars e5 d10 e5, PS)”, the target mRNA inhibition reads like this: (HepG2, 2.5 µM) 89% and 69%; (HepG2, 10 µM) 97% and 93%.
Take “CCACTGGAGCACTGAGATGA (sugars e5 d10 e5, PS)”: the target mRNA inhibition (HepG2, 0.12 µM) turned out to be 71%.
Same read-out and setting: under “ACCAGGGCCTCCATGTACAT (sugars e2 d13 e5, PS)” stands 50%; under “GAACTTCTTCTGGACCCATC (sugars e5 d10 e5, PS)”, 19%.
Take “TGCCACAGGGCCCTTTCCAG (sugars e5 d10 e5, PS)”: the target mRNA inhibition worked out at 11% (HepG2, 2.5 µM) and 67% (HepG2, 10 µM).
On to “GAGTAAGGGTATTCTGCTCA (sugars e5 d10 e5, PS)”, for which, for the setting “HepG2, 10 µM”, the target mRNA inhibition is 91% and 93% and 96%.
“GCCAGGTAAGGCCGTATGCC (sugars e2 d13 e5, PS)”: the target mRNA inhibition (HepG2, 0.12 µM) was determined as 66%.
Take “CCTAGGTACAAGTTTCTCCA (sugars e5 d10 e5, PS)”: the target mRNA inhibition reads like this: (HepG2, 2.5 µM) 65%; (HepG2, 10 µM) 87%.
On to “TTGCTCAGTTCTTCCAACCA (sugars e5 d10 e5, PS)”, for which the target mRNA inhibition by setting is: (HepG2, 2.5 µM) 81% and 72%; (HepG2, 10 µM) 93% and 94%.
The sequence “GTCCTGCAGTTTCAGGACTA (sugars e5 d10 e5, PS)” gave a target mRNA inhibition (HepG2, 0.12 µM) of 54%.
Take “GCTTTAATCCAGGATTGTCA (sugars e5 d10 e5, PS)”: the target mRNA inhibition (HepG2, 2.5 µM) is 73% and 76% and 82%; the target mRNA inhibition (HepG2, 10 µM) is 91% and 88% and 93%.
The sequence “AACCCACAGACACCCATGAC (sugars e5 d10 e5, PS)” showed a target mRNA inhibition (HepG2, 0.12 µM) of 4%.
As for “GGACCCACTGGAGCACTGAG (sugars e3 d14 e3, PS)”, the target mRNA inhibition is, setting by setting: (HepG2, 0.12 µM) 82%; (HepG2, 2.5 µM) 29%; (HepG2, 10 µM) 42%; (HepG2, 20 µM) 71%.
As to “ACAGGACCCACTGGAGCACT (sugars e2 d13 e5, PS)”, for the setting “HepG2, 0.12 µM”, the target mRNA inhibition worked out at 68%.
The same measure, in the same setting: for “ACAAAGCCCTTGCGGTTCCG (sugars e5 d10 e5, PS)” the value was 35%.
With “GAAATCTGAGTGCTGCTAAC (sugars e5 d10 e5, PS)”, the target mRNA inhibition is 71% (HepG2, 2.5 µM) and 91% (HepG2, 10 µM).
For the sequence “CGCGCAGGACCCCGGAGTAG (sugars e3 d14 e3, PS)”, where the note is “HepG2, 0.12 µM”, the target mRNA inhibition was 69%.
Regarding “TGCAGCCTGGACAAGTCCTG (sugars e3 d14 e3, PS)”, the target mRNA inhibition by setting is: (HepG2, 0.12 µM) 77%; (HepG2, 2.5 µM) 27%; (HepG2, 10 µM) 51%; (HepG2, 20 µM) 68%.
As to “CACTAATTCTGGGCTTCCAG (sugars e5 d10 e5, PS)”, the target mRNA inhibition (HepG2, 2.5 µM) was 64% and the target mRNA inhibition (HepG2, 10 µM) turned out to be 96%.
On the same counts, the results for “CCAATGCACCTTGTATTAAA (sugars e5 d10 e5, PS)” are 72% and 92%.
Under “HepG2, 0.12 µM”, “AAACACCAGCCAAGTGAAGT (sugars e5 d10 e5, PS)” had a target mRNA inhibition of 9%.
With “GGTTGTGTGTCTTCACCAGC (sugars e3 d14 e3, PS)”, for the setting “HepG2, 0.12 µM”, the target mRNA inhibition came to 70%.
Consider “GTCATACTTACTGTTCAGCA (sugars e5 d10 e5, PS)”, for which the target mRNA inhibition was 78% and 65% (HepG2, 2.5 µM); 94% and 91% (HepG2, 10 µM).
In turn, “GTGTGTCTTCACCAGCTGGA (sugars e5 d10 e5, PS)” yielded a target mRNA inhibition (HepG2, 0.12 µM) of 53%.
Take “GGCCAAGGACAGAGGTTCAA (sugars e5 d10 e5, PS)”: the target mRNA inhibition is, setting by setting: (HepG2, 2.5 µM) 60%; (HepG2, 10 µM) 87%.
“GGACCCACTGGAGCACTGAG (sugars e2 d13 e5, PS)”: the target mRNA inhibition by setting is: (HepG2, 0.12 µM) 86%; (HepG2, 2.5 µM) 24%; (HepG2, 10 µM) 28%; (HepG2, 20 µM) 67%.
For the sequence “GGGTCATTTTGGAGACCACA (sugars e5 d10 e5, PS)”, the target mRNA inhibition reads like this: (HepG2, 2.5 µM) 59%; (HepG2, 10 µM) 83%.
On the same counts, the results for “GGTTCCGCAGGGTGACTGCA (sugars e5 d10 e5, PS)” are 48% and 68%.
Take “GGTTTACTGCATAGCTGAGC (sugars e5 d10 e5, PS)”: the target mRNA inhibition was 79% and 72% (HepG2, 2.5 µM); 86% and 76% (HepG2, 10 µM).
On to “TTTGAAATCCAATGCACCTT (sugars e5 d10 e5, PS)”, for which the target mRNA inhibition amounted to 63% (HepG2, 2.5 µM) and 96% (HepG2, 10 µM).
“CACCATAATCTGCACAGGTT (sugars e5 d10 e5, PS)”: the target mRNA inhibition (HepG2, 2.5 µM) was 86% and 94%; the target mRNA inhibition (HepG2, 10 µM) was 88% and 93%.
For the setting “HepG2, 0.12 µM”, “AGCTTCACCAGGGCCTCCAT (sugars e5 d10 e5, PS)” displayed a target mRNA inhibition of 42%.
In the case of “CACAGTCATCTTGTGTACAT (sugars e5 d10 e5, PS)”, the target mRNA inhibition was 74% and 76% (HepG2, 2.5 µM); 92% and 93% (HepG2, 10 µM).
Sequence “TTTAAATAACCCACAGACAC (sugars e5 d10 e5, PS)” gave a target mRNA inhibition (HepG2, 0.12 µM) of 14%.
Still for that read-out and setting: for “TAGCATTGCCACTCCCATTC (sugars e5 d10 e5, PS)” the value was 71%; for “TTGCCAGGCATGGAGCTCAG (sugars e5 d10 e5, PS)”, 37%.
For “TAGGCATGCTTCCTCCCACT (sugars e5 d10 e5, PS)”, the target mRNA inhibition is, setting by setting: (HepG2, 2.5 µM) 65%; (HepG2, 10 µM) 84%.
Turning to “AGATGGACAGGTGATTCTAA (sugars e5 d10 e5, PS)”, the target mRNA inhibition (HepG2, 0.12 µM) stood at 50%.
With “GACTTGCCCAGCAACCCATC (sugars e5 d10 e5, PS)”, the target mRNA inhibition (HepG2, 2.5 µM) is 77% and the target mRNA inhibition (HepG2, 10 µM) was determined as 54%.
Sequence “GACCTATTGAGCCAGGTGAC (sugars e5 d10 e5, PS)” gave a target mRNA inhibition (HepG2, 0.12 µM) of 36%.
On the same count and under the same terms, under “GGTAAGGCCGTATGCCTGGG (sugars e2 d13 e5, PS)” stands 53%.
Take “GGACCCACTGGAGCACT (sugars e3 d10 e4, PS)”: the target mRNA inhibition was 57% (HepG2, 2.5 µM) and 93% (HepG2, 10 µM).
